Assays:
Format in all cases: cell-based
[1] = target: proteins of U3A human fibrosarcoma cells (4462 proteins detected) (Homo sapiens, UniProt Q6ZQQ6); conditions: protein WDR87; U3A, 10 μM, 2 h
[2] = target: proteins of U3A human fibrosarcoma cells (4462 proteins detected) (Homo sapiens, UniProt Q9UEY8); conditions: protein ADD3; U3A cells
[3] = target: proteins of U3A human fibrosarcoma cells (4462 proteins detected) (Homo sapiens, UniProt P15586); conditions: protein GNS, U3A cells
[4] = target: proteins of U3A human fibrosarcoma cells (4462 proteins detected) (Homo sapiens, UniProt Q9NYV4); conditions: protein CDK12; U3A cells
[5] = target: proteins of U3A human fibrosarcoma cells (4462 proteins detected) (Homo sapiens, UniProt Q8IWX8); conditions: protein CHERP; soluble abundance after heat, U3A cells
[6] = target: proteins of U3A human fibrosarcoma cells (4462 proteins detected) (Homo sapiens, UniProt Q96SB8); conditions: protein SMC6; U3A cells
proteins of U3A human fibrosarcoma cells (4462 proteins detected) (Homo sapiens, UniProt Q96SB8), sequence (Q96SB8 whole entry): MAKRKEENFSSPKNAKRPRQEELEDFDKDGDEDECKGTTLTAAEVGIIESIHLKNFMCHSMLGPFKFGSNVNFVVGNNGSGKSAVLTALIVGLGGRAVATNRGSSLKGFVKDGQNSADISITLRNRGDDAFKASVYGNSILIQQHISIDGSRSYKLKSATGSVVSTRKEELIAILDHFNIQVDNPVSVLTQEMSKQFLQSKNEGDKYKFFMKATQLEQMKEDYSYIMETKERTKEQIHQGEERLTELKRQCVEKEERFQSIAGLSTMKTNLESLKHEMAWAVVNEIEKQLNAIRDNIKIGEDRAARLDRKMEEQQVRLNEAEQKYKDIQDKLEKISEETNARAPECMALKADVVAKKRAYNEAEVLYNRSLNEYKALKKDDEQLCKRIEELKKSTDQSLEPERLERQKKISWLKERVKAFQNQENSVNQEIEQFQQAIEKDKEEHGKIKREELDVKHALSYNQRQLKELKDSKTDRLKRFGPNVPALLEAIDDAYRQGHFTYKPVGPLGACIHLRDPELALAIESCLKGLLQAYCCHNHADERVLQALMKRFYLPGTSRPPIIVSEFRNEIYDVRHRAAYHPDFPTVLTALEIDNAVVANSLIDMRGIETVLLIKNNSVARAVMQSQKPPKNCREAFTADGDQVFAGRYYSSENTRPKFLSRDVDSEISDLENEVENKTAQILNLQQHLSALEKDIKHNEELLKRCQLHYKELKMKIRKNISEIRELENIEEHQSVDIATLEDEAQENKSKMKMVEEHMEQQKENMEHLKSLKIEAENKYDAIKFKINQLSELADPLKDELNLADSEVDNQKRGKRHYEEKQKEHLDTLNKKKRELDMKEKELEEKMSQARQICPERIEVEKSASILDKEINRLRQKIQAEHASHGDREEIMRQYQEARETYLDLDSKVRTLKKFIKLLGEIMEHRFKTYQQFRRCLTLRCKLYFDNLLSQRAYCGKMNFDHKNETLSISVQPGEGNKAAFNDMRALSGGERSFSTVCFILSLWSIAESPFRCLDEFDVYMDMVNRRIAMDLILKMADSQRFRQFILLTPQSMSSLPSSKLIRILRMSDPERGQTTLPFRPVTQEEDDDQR

[7] = target: proteins of U3A human fibrosarcoma cells (4462 proteins detected) (Homo sapiens, UniProt Q9UNX4); conditions: protein WDR3; U3A cells
[8] = target: proteins of U3A human fibrosarcoma cells (4462 proteins detected) (Homo sapiens, UniProt Q68CP9); conditions: protein ARID2; U3A cells
[9] = target: proteins of U3A human fibrosarcoma cells (4462 proteins detected) (Homo sapiens, UniProt Q8NAV1); conditions: protein PRPF38A; U3A cells
[10] = target: proteins of U3A human fibrosarcoma cells (4462 proteins detected) (Homo sapiens, UniProt P57105); conditions: protein SYNJ2BP-COX16; SYNJ2BP, U3A cells
proteins of U3A human fibrosarcoma cells (4462 proteins detected) (Homo sapiens, UniProt P57105), sequence (P57105 whole entry): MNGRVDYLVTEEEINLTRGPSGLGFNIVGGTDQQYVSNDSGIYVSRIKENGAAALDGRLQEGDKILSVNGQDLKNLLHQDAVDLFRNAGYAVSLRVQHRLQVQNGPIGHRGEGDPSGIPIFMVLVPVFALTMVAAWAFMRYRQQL

[11] = target: proteins of U3A human fibrosarcoma cells (4462 proteins detected) (Homo sapiens, UniProt P57772); conditions: protein EEFSEC, U3A cells
[12] = target: proteins of U3A human fibrosarcoma cells (4462 proteins detected) (Homo sapiens, UniProt Q9NQW6); conditions: protein ANLN; soluble abundance after heat, U3A cells
proteins of U3A human fibrosarcoma cells (4462 proteins detected) (Homo sapiens, UniProt Q9NQW6), sequence (Q9NQW6 whole entry): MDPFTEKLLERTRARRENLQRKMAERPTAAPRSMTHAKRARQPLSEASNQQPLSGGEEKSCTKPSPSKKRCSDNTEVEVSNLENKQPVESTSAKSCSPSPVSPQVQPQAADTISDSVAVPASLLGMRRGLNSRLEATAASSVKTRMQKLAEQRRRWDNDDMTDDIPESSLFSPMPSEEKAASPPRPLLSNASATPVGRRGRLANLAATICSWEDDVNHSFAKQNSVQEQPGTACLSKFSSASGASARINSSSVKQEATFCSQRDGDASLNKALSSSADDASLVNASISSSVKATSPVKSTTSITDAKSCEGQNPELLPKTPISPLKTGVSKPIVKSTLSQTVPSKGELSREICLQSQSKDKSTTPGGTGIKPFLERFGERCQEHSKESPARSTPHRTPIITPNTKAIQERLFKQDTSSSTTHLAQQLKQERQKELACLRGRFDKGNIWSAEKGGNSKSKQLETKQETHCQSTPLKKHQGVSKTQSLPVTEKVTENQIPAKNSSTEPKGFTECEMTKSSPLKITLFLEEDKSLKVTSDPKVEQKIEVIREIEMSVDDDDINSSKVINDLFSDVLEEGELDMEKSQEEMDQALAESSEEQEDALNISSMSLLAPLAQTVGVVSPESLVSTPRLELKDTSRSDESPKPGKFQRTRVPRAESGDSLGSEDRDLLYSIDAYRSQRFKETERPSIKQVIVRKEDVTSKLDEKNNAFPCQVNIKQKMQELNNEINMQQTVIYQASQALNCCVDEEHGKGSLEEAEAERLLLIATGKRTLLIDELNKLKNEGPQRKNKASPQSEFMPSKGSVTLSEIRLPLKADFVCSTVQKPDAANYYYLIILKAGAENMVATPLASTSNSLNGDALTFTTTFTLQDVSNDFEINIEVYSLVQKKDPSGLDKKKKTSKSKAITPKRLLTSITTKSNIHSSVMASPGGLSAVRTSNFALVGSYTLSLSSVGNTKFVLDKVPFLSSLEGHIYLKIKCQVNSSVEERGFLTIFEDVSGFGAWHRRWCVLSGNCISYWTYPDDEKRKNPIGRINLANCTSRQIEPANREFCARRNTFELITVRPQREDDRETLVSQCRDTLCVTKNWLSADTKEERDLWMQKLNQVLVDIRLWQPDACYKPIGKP

[13] = target: proteins of U3A human fibrosarcoma cells (4462 proteins detected) (Homo sapiens, UniProt O95297); conditions: protein MPZL1; U3A, 10 μM, 2 h
[14] = target: proteins of U3A human fibrosarcoma cells (4462 proteins detected) (Homo sapiens, UniProt Q8WW01); conditions: protein TSEN15; U3A, 10 μM, 2 h
proteins of U3A human fibrosarcoma cells (4462 proteins detected) (Homo sapiens, UniProt Q8WW01), sequence (Q8WW01 whole entry): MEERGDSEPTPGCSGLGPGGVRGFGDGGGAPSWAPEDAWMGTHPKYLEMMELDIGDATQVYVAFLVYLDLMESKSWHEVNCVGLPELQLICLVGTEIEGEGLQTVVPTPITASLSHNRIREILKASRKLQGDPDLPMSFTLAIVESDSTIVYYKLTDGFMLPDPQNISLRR

[15] = target: proteins of U3A human fibrosarcoma cells (4462 proteins detected) (Homo sapiens, UniProt Q12765); conditions: protein SCRN1, U3A cells
proteins of U3A human fibrosarcoma cells (4462 proteins detected) (Homo sapiens, UniProt Q12765), sequence (Q12765 whole entry): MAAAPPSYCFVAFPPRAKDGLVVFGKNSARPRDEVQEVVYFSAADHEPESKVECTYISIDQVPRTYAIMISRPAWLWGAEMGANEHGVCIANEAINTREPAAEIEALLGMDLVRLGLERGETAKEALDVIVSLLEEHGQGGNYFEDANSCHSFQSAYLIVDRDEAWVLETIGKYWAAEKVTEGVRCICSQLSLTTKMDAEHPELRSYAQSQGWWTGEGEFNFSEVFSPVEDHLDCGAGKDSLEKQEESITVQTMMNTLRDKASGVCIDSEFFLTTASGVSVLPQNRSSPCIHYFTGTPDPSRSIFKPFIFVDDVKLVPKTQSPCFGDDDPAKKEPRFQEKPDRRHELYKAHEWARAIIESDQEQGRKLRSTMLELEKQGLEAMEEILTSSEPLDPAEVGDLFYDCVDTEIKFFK

[16] = target: proteins of U3A human fibrosarcoma cells (4462 proteins detected) (Homo sapiens, UniProt P13693); conditions: protein TPT1, U3A cells
[17] = target: proteins of U3A human fibrosarcoma cells (4462 proteins detected) (Homo sapiens, UniProt Q92572); conditions: protein AP3S1; U3A cells
[18] = target: proteins of U3A human fibrosarcoma cells (4462 proteins detected) (Homo sapiens, UniProt Q16610); conditions: protein ECM1; U3A, 10 μM, 2 h
[19] = target: proteins of U3A human fibrosarcoma cells (4462 proteins detected) (Homo sapiens, UniProt A0FGR8); conditions: protein ESYT2; U3A, 10 μM, 2 h
proteins of U3A human fibrosarcoma cells (4462 proteins detected) (Homo sapiens, UniProt A0FGR8), sequence (A0FGR8 whole entry): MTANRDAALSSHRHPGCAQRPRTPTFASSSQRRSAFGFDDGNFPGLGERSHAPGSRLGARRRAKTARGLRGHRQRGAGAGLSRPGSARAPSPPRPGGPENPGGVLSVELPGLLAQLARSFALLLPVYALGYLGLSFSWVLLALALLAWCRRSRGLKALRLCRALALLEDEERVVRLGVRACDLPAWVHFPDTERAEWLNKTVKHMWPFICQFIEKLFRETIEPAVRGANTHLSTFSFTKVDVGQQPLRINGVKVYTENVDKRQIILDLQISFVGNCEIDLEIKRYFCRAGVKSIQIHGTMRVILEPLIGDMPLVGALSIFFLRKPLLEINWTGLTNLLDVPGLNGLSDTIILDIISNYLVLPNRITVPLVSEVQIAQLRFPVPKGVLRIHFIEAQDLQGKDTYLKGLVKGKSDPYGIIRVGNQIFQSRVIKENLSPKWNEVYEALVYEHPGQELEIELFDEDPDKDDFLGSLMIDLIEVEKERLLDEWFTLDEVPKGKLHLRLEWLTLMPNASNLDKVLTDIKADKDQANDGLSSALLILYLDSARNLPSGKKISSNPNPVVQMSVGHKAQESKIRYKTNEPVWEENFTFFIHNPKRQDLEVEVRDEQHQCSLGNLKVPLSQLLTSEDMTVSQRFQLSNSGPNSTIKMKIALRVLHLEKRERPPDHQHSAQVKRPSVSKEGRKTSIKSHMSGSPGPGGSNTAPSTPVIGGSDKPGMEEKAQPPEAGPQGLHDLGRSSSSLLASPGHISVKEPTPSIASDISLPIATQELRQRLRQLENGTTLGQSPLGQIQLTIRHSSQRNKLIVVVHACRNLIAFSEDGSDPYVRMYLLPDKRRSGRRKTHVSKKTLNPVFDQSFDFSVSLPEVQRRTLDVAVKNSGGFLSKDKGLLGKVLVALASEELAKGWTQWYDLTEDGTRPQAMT

[20] = target: proteins of U3A human fibrosarcoma cells (4462 proteins detected) (Homo sapiens, UniProt Q9BW91); conditions: protein NUDT9, U3A cells
[21] = target: proteins of U3A human fibrosarcoma cells (4462 proteins detected) (Homo sapiens, UniProt P36776); conditions: protein LONP1; U3A cells
[22] = target: proteins of U3A human fibrosarcoma cells (4462 proteins detected) (Homo sapiens, UniProt Q9BX40); conditions: protein LSM14B; U3A, 10 μM, 2 h
[23] = target: proteins of U3A human fibrosarcoma cells (4462 proteins detected) (Homo sapiens, UniProt Q16774); conditions: protein GUK1; U3A, 10 μM, 2 h
[24] = target: proteins of U3A human fibrosarcoma cells (4462 proteins detected) (Homo sapiens, UniProt Q9NVU7); conditions: protein SDAD1; soluble abundance after heat, U3A cells
[25] = target: proteins of U3A human fibrosarcoma cells (4462 proteins detected) (Homo sapiens, UniProt P62937); conditions: protein PPIA
proteins of U3A human fibrosarcoma cells (4462 proteins detected) (Homo sapiens, UniProt P62937), sequence (P62937 whole entry): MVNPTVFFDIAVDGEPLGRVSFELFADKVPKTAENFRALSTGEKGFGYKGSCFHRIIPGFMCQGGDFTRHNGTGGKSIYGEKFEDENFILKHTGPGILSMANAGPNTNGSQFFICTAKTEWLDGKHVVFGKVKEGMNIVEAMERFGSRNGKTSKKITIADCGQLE

[26] = target: proteins of U3A human fibrosarcoma cells (4462 proteins detected) (Homo sapiens, UniProt Q6P1N0); conditions: protein CC2D1A; soluble abundance after heat, U3A cells
[27] = target: proteins of U3A human fibrosarcoma cells (4462 proteins detected) (Homo sapiens, UniProt Q08623); conditions: protein HDHD1, U3A cells
[28] = target: proteins of U3A human fibrosarcoma cells (4462 proteins detected) (Homo sapiens, UniProt P31689); conditions: protein DNAJA1; U3A cells
[29] = target: proteins of U3A human fibrosarcoma cells (4462 proteins detected) (Homo sapiens, UniProt Q7Z6B0); conditions: protein CCDC91, U3A cells
proteins of U3A human fibrosarcoma cells (4462 proteins detected) (Homo sapiens, UniProt Q7Z6B0), sequence (Q7Z6B0 whole entry): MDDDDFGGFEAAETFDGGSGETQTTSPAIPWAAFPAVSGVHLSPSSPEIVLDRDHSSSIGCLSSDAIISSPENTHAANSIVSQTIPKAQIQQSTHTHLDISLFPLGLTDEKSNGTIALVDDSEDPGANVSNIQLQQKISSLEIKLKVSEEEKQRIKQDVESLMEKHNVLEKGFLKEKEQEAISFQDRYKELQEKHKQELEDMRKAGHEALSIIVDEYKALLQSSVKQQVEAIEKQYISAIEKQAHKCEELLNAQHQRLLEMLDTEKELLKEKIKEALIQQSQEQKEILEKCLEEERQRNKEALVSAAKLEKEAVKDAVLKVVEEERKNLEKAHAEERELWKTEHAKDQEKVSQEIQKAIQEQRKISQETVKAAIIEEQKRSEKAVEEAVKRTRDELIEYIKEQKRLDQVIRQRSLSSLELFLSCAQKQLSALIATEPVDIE

proteins of U3A human fibrosarcoma cells (4462 proteins detected) (Homo sapiens, UniProt P15586), sequence (P15586 37-552): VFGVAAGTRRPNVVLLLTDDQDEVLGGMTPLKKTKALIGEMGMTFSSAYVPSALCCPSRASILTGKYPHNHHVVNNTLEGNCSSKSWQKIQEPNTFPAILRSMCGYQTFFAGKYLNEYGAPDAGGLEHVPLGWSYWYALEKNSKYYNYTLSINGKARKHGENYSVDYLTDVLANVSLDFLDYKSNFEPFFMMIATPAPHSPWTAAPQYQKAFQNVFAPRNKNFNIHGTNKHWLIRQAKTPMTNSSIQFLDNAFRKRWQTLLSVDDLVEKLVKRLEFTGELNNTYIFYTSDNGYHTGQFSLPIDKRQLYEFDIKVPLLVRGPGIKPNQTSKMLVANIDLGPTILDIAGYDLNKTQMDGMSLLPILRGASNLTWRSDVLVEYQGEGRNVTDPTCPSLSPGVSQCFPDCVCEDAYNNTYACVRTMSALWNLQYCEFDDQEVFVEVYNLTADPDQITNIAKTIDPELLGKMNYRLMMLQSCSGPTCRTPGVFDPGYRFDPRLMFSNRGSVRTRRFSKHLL

CCc1nc(N)nc(N)c1-c1ccc(Cl)cc1 [pyrimethamine]
Log2 (PYR/DMSO), WDR87 [1]: -0.16
Log2 (PYR/DMSO) [2]: 0.16
Log2 (PYR/DMSO) [3]: -0.04
Log2 (PYR/DMSO) [4]: 0.20
Log2 (PYR/DMSO) [5]: 0.14
Log2 (PYR/DMSO) [6]: 0.18
Log2 (PYR/DMSO) [7]: 0.17
Log2 (PYR/DMSO) [8]: 0.18
Log2 (PYR/DMSO) [9]: 0.16
Log2 (PYR/DMSO) [10]: -0.03
Log2 (PYR/DMSO) [11]: -0.04
Log2 (PYR/DMSO) [12]: 0.14
Log2 (PYR/DMSO), MPZL1 [13]: 0.25
Log2 (PYR/DMSO), TSEN15 [14]: -0.15
Log2 (PYR/DMSO) [15]: -0.04
Log2 (PYR/DMSO) [16]: -0.05
Log2 (PYR/DMSO) [17]: 0.18
Log2 (PYR/DMSO), ECM1 [18]: -0.14
Log2 (PYR/DMSO), ESYT2 [19]: 0.33
Log2 (PYR/DMSO) [20]: -0.04
Log2 (PYR/DMSO) [21]: 0.22
Log2 (PYR/DMSO), LSM14B [22]: -0.17
Log2 (PYR/DMSO), GUK1 [23]: -0.14
Log2 (PYR/DMSO) [24]: 0.15
Log2 (PYR/DMSO) ([25]; U3A cells): -0.03
Log2 (PYR/DMSO), PPIA ([25]; U3A, 10 μM, 2 h): -0.14
Log2 (PYR/DMSO) [26]: 0.15
Log2 (PYR/DMSO) [27]: -0.04
Log2 (PYR/DMSO) [28]: 0.17
Log2 (PYR/DMSO) [29]: -0.04

From article PMC8800111 (The Journal of Biological Chemistry, 2021)
